Consider 22 compounds from patent publication US20230148005A1, “MACROCYCLIC COMPOUNDS AND USES THEREOF” (THESEUS PHARMACEUTICALS, INC., priority 2020, published 2023).

Read-outs that look alike come from different tables or passages of the source.

Experiment [1] has as its system Ba/F3 Parental. The experiment is described as follows: Ba/F3 viability assay (CellTiter-Glo), parental. It is filed as cell-based. In a few lines: (§1)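 Antiproliferative activity is assessed through a cell viability read-out, run in parallel across the mutant-EGFR-driven and parental Ba/F3 cells.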
(ATP-based viability assays read luminescence as a measure of living cells.)

For experiment [2], the target named is Ba/F3 EGFR-Del19/T790M (Homo sapiens, UniProt P00533, T790M, cells depend on it, form not given). The experiment can be described thus: Ba/F3 viability assay (CellTiter-Glo), DT. The format is cell-based. The conditions noted are these: anti-proliferation, read-out: BaF3 DT IC50. In a few lines: as §1
The target in experiment [3] is EGFR^L58R/T790M (Homo sapiens, UniProt P00533, L858R/T790M). The experiment is described as follows: in vitro kinase assay (HTRF KinEASE-TK kit), LT. The format is biochemical. The conditions noted are these: kinase inhibition. An excerpt:
(§2) Assays using an in vitro kinase assay kit (HTRF KinEASE-TK kit) can be used to study the inhibitory activity of compounds described herein with respect to EGFR mutants such as EGFR^L858R, EGFR^L58R/T790M, and EGFR^L858R/T790M/C^797S.

Experiment [4] addresses Ba/F3 EGFR-Del19/T790M/C797S (Homo sapiens, UniProt P00533, T790M/C797S, cells depend on it, form not given). The experiment can be described thus: Ba/F3 viability assay (CellTiter-Glo), DTC. The format is cell-based. The following applies: anti-proliferation, read-out: BaF3 DTC IC50. In a few lines:
as §1

Experiment [5] deals with EGFR^L858R/T790M/C^797S (Homo sapiens, UniProt P00533, C797S/L858R/T790M). The experiment can be described thus: in vitro kinase assay (HTRF KinEASE-TK kit), LTC. It is filed as biochemical. The following applies: kinase inhibition.
Source text: as §2

For experiment [6], the target named is Ba/F3 EGFR-Del19/C797S (Homo sapiens, UniProt P00533, C797S, cells depend on it, form not given). The experiment is described as follows: Ba/F3 viability assay (CellTiter-Glo), DC. The format is cell-based. The conditions noted are these: anti-proliferation, read-out: BaF3 DC IC50. In short, it runs like this: as §1
The target of experiment [7] is EGFR^L858R (Homo sapiens, UniProt P00533, L858R). The experiment can be described thus: in vitro kinase assay (HTRF KinEASE-TK kit), L. It is filed as biochemical. The conditions noted are these: kinase inhibition.
Source text: as §2
On the technique in general: In TR-FRET formats the signal depends on donor and acceptor labels being close together.

The mark [8] stands for this setting: Mus musculus, BaF3, anti-proliferation.

Ba/F3 EGFR-Del19/T790M, sequence (P00533 with tags, fused parts or gaps DEL746-750/T790M, form open): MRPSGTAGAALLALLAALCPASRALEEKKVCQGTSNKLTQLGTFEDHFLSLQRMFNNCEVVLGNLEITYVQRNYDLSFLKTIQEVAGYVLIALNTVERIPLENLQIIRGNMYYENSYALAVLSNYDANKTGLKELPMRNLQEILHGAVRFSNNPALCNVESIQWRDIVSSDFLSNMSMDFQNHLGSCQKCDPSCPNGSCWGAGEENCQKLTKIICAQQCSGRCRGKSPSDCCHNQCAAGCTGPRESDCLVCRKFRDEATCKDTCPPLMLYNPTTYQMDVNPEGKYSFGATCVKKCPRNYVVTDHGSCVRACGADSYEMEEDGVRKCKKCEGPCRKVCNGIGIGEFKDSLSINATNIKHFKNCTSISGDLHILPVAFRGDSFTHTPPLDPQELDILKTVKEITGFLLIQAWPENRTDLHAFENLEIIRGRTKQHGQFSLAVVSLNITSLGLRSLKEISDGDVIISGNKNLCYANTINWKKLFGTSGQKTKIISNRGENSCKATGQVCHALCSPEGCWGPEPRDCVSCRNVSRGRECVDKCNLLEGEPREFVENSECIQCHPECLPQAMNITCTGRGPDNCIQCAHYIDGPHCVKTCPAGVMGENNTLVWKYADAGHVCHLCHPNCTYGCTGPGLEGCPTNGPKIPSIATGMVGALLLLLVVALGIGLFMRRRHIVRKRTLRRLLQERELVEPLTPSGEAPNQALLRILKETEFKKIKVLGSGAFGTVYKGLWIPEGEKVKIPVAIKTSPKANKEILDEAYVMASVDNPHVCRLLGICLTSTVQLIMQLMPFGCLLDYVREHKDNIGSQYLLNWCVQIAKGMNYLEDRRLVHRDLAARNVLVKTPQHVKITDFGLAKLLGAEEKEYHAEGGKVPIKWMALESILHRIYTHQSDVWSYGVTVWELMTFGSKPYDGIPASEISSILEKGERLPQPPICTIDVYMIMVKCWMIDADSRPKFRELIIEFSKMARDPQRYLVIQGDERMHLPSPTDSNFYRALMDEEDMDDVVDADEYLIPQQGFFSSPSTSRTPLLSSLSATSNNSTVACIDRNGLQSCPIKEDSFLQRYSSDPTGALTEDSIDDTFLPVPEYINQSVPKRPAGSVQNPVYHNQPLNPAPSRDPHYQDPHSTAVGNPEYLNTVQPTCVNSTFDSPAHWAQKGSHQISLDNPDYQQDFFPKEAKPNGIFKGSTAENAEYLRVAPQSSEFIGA
Ba/F3 EGFR-Del19/C797S, sequence (P00533 with tags, fused parts or gaps DEL746-750/C797S, form open): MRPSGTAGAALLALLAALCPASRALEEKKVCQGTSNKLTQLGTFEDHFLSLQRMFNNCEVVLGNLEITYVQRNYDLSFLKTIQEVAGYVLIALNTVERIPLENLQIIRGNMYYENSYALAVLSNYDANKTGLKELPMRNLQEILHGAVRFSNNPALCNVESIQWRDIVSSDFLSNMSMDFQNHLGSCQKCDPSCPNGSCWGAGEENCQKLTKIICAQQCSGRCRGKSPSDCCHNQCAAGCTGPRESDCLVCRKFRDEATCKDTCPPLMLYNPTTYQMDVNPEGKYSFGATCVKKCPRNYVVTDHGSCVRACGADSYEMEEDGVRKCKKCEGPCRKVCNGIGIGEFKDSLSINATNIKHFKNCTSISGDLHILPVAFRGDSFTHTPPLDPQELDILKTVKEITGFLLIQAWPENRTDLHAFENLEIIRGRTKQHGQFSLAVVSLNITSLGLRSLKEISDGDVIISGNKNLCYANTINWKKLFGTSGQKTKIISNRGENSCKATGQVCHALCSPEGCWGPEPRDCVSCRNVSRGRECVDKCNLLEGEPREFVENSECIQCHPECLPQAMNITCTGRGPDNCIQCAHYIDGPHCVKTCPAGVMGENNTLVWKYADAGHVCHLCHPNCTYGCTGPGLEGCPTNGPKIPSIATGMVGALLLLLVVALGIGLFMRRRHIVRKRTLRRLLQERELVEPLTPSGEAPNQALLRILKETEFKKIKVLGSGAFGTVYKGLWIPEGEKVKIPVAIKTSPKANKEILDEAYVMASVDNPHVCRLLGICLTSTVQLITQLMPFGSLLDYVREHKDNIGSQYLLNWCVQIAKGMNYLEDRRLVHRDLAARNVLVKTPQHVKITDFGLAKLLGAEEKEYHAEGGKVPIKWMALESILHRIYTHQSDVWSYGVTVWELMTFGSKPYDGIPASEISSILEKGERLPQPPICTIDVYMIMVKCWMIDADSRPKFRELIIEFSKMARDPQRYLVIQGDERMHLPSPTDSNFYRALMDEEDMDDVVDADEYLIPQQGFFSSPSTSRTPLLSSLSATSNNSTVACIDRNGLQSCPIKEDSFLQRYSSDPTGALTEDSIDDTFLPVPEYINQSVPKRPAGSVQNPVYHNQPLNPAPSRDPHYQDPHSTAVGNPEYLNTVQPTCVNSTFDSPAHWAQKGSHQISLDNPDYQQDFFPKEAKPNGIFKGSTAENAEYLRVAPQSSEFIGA
Ba/F3 EGFR-Del19/T790M/C797S, sequence (P00533 with tags, fused parts or gaps DEL746-750/T790M/C797S, form open): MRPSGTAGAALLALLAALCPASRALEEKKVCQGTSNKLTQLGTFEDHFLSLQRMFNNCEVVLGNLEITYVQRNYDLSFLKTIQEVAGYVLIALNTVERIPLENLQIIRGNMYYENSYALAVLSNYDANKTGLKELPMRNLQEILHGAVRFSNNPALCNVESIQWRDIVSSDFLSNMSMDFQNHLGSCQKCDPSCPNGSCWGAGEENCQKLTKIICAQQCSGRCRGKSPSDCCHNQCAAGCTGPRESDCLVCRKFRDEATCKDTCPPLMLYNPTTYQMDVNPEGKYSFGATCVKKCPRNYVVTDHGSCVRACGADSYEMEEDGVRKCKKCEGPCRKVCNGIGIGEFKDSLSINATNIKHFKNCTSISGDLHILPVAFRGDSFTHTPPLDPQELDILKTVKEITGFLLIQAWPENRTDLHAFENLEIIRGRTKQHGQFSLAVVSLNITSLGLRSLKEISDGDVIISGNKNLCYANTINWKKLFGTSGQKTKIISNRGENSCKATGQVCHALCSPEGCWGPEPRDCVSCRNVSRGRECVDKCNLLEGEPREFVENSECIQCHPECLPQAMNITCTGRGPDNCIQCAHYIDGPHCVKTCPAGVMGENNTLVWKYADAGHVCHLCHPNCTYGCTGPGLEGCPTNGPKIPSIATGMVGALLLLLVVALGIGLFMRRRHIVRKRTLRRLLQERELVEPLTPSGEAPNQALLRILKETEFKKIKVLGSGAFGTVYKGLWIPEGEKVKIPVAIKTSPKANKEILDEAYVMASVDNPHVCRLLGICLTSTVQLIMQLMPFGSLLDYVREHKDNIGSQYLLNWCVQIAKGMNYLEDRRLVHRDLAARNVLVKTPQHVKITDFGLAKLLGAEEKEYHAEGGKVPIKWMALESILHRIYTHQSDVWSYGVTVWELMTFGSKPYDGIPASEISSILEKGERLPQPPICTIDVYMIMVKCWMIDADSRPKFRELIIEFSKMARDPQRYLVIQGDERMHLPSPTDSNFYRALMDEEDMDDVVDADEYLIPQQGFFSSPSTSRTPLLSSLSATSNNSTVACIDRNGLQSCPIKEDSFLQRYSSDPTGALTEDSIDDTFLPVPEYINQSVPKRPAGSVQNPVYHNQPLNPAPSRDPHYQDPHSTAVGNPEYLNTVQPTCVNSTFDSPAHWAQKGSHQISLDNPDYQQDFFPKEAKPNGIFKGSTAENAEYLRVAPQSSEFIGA
EGFR^L858R/T790M/C^797S, sequence (P00533 25-1210 T790M/C797S/L858R): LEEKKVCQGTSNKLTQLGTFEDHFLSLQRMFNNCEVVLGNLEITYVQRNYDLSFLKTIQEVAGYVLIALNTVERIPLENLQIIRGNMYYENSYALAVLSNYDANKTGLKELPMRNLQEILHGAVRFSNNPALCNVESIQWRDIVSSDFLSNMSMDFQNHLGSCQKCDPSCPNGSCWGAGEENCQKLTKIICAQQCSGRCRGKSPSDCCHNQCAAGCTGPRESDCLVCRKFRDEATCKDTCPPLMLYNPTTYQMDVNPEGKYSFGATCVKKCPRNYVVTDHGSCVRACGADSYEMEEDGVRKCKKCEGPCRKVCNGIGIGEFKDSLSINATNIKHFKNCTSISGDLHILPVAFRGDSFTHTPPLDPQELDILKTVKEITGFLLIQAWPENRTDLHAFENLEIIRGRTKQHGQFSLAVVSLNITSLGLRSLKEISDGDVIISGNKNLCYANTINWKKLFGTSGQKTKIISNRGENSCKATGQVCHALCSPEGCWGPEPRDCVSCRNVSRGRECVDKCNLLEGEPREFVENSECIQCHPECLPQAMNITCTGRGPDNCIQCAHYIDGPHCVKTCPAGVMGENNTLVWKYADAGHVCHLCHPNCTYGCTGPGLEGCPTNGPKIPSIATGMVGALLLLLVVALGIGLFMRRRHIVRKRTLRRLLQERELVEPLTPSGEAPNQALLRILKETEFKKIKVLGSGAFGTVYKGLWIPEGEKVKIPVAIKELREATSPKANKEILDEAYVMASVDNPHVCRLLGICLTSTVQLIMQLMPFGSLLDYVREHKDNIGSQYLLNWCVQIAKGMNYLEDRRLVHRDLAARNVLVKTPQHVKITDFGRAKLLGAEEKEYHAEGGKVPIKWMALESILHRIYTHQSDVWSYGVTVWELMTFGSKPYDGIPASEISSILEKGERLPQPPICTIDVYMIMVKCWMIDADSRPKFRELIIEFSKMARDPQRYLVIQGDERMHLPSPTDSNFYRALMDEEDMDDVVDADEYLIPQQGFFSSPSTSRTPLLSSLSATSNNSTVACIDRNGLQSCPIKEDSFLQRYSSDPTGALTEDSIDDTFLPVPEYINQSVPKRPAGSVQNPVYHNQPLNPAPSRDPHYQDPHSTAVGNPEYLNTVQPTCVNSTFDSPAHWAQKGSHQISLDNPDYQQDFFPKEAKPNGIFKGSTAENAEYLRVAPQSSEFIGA

As a reminder, the IC50 is the point on the concentration scale where inhibition reaches its midpoint. With `Cn1ncc2c1OCCCn1nc(N3CCC3)c3cnc(cc31)Nc1ccnc-2n1` [(3)], the IC50 is 100 to 1000 nM in experiment [1] (setting [8]), less than 10 nM in experiment [3], less than 10 nM in experiment [5] and 10 to 100 nM in experiment [7]. For the same compound, the GI50 in experiment [2] is 10 to 100 nM; in experiment [4] it was 100 to 1000 nM; in experiment [6], 100 to 1000 nM.

On to `CCN(CC)CCOc1cc(-c2nn3c4cc(ncc24)Nc2ccnc(n2)-c2cnn(C)c2OCC[C@@H]3C)ccc1F` [(149)], for which the IC50 is 100 to 1000 nM in experiment [1] (setting [8]), less than 10 nM in experiment [3], less than 10 nM in experiment [5] and less than 10 nM in experiment [7]. Further, the figures for the GI50 in experiment [2], in experiment [4] and in experiment [6] were less than 10 nM, less than 10 nM and 10 to 100 nM, respectively.

Take `CCN(CC)CCOc1cc(F)cc(-c2nn3c4cc(ncc24)Nc2ccnc(n2)-c2cnn(C)c2OCC[C@@H]3C)c1` [(133)]: the half-maximal inhibitory concentration (IC50) was 100 to 1000 nM in experiment [1] (setting [8]), less than 10 nM in experiment [3], less than 10 nM in experiment [5] and 10 to 100 nM in experiment [7]. Besides, the GI50 in experiment [2], in experiment [4] and in experiment [6] was 10 to 100 nM throughout.

On to `C[C@H]1CCOc2c(cnn2C)-c2nccc(n2)Nc2cc3c(cn2)c(-c2cccc(N4CCC(N(C)C)CC4)c2)nn31` [(108)], for which the IC50 in experiment [1] (setting [8]) is 100 to 1000 nM; in experiment [3], less than 10 nM; in experiment [5] it was less than 10 nM; in experiment [7], less than 10 nM. Besides, the GI50 in experiment [2] was 10 to 100 nM; in experiment [4], less than 10 nM; in experiment [6], 10 to 100 nM.

As for `CC1CCCCOc2c(cnn2C)-c2nccc(n2)Nc2cc3c(cn2)c(N2CCC2)nn31` (stereo not shown) [(58)], the IC50 was not below 1000 nM in experiment [1] (setting [8]), less than 10 nM in experiment [3], less than 10 nM in experiment [5] and 10 to 100 nM in experiment [7]. In addition, the GI50 in experiment [2], in experiment [4] and in experiment [6] was 10 to 100 nM throughout.

Take `CCn1c(CN2CCN(C3CC3)CC2)ccc1-c1nn2c3cc(ncc13)Nc1ccnc(n1)-c1cnn(C)c1OCC[C@@H]2C` [(125)]: the IC50 in experiment [1] (setting [8]) was 100 to 1000 nM; in experiment [3] it was less than 10 nM; in experiment [5], less than 10 nM; in experiment [7] it was 10 to 100 nM. Moreover, the GI50 in experiment [2] is less than 10 nM; in experiment [4], less than 10 nM; in experiment [6] it was 10 to 100 nM.

On to `CCn1ccc(-c2nn3c4cc(ncc24)Nc2ccnc(n2)-c2cnn(C)c2OCCCC3C)n1` (stereo not shown) [(85)], for which the IC50 is not below 1000 nM in experiment [1] (setting [8]), less than 10 nM in experiment [3], less than 10 nM in experiment [5] and 10 to 100 nM in experiment [7]. In addition, the GI50 in experiment [2] is less than 10 nM; in experiment [4], less than 10 nM; in experiment [6], 10 to 100 nM.

As for `C[C@H]1CCOc2c(cnn2C)-c2nccc(n2)Nc2cc3c(cn2)c(-c2ccc(CN4CC[C@@H](N(C)C)C4)n2C)nn31` [(186)], the IC50 is 100 to 1000 nM in experiment [1] (setting [8]), less than 10 nM in experiment [3], less than 10 nM in experiment [5] and less than 10 nM in experiment [7]. The GI50 in experiment [2], in experiment [4] and in experiment [6] was less than 10 nM in each case.

Turning to `CC1CCOc2c(cnn2C)-c2nccc(n2)Nc2cc3c(cn2)c(N2CCC2)nn31` (stereo not shown) [(33), 17-(azetidin-1-yl)-20,27-dimethyl-30-oxa-21,22,23,24,25,26,27,28-octazapentacyclopentacosa-2,4(14),5(22),6(23),12(24),13(15),16(18),17(25),19(21)-nonaene], the IC50 was not below 1000 nM in experiment [1] (setting [8]), less than 10 nM in experiment [3], less than 10 nM in experiment [5] and 10 to 100 nM in experiment [7]. The GI50 in experiment [2], in experiment [4] and in experiment [6] was 10 to 100 nM each time.

For the compound `CC1CCOc2c(cnn2C)-c2nccc(n2)Nc2cc3c(cn2)c(N2CC(C(=O)N(C)C)C2)nn31` (stereo not shown) [(16)], the IC50 in experiment [1] (setting [8]) was 100 to 1000 nM; in experiment [3], less than 10 nM; in experiment [5], less than 10 nM; in experiment [7], 10 to 100 nM. Moreover, the GI50 in experiment [2], in experiment [4] and in experiment [6] was 10 to 100 nM in each case.

With `CCN(CC)CCn1cc(-c2nn3c4cc(ncc24)Nc2ccnc(n2)-c2cnn(C)c2OCC[C@@H]3C)cn1` [(117)], the IC50 in experiment [1] (setting [8]) is 10 to 100 nM; in experiment [3], less than 10 nM; in experiment [5], less than 10 nM; in experiment [7], less than 10 nM. The figures for the GI50 in experiment [2], in experiment [4] and in experiment [6] were less than 10 nM, less than 10 nM and 10 to 100 nM, respectively.

As to `C[C@H]1CCOc2c(cnn2C)-c2nccc(n2)Nc2cc3c(cn2)c(N2CC[C@@H](N(C)C)C2)nn31` [(181)], the IC50 in experiment [1] (anti-proliferation, read-out: BaF3 parental IC50) is 100 to 1000 nM; in experiment [3], less than 10 nM; in experiment [5], less than 10 nM; in experiment [7], less than 10 nM. Besides, the GI50 in experiment [2], in experiment [4] and in experiment [6] was 10 to 100 nM each time.

For the compound `CCn1cc(-c2nn3c4cc(ncc24)Nc2ccnc(n2)-c2cnn(C)c2OCCC3C)cc1CN1CCN(C)CC1` (stereo not shown) [(76)], the IC50 is 10 to 100 nM in experiment [1] (setting [8]), less than 10 nM in experiment [3], less than 10 nM in experiment [5] and less than 10 nM in experiment [7]. For the same compound, the GI50 in experiment [2], in experiment [4] and in experiment [6] was less than 10 nM throughout.

On to `CCn1cc(-c2nn3c4cc(ncc24)Nc2ccnc(n2)-c2cnn(C)c2OCC[C@@H]3C)cc1CN1CCN(C2CC2)CC1` [(126)], for which the 50% inhibitory concentration (IC50) was 100 to 1000 nM in experiment [1] (setting [8]), less than 10 nM in experiment [3], less than 10 nM in experiment [5] and less than 10 nM in experiment [7]. Further, the GI50 in experiment [2], in experiment [4] and in experiment [6] was less than 10 nM in each case.

Regarding `C[C@H]1CCOc2c(cnn2C)-c2nccc(n2)Nc2cc3c(cn2)c(-c2cc(F)cc(OCCN(C)C)c2)nn31` [(129)], the IC50 is 100 to 1000 nM in experiment [1] (setting [8]), less than 10 nM in experiment [3], less than 10 nM in experiment [5] and 10 to 100 nM in experiment [7]. Besides, the GI50 in experiment [2], in experiment [4] and in experiment [6] was 10 to 100 nM each time.

Turning to `CC1CCCOc2c(cnn2C)-c2nccc(n2)Nc2cc3c(cn2)c(-c2ccc(CN4CCN(C5CC5)CC4)o2)nn31` (stereo not shown) [(87)], the IC50 in experiment [1] (setting [8]) was 100 to 1000 nM; in experiment [3], less than 10 nM; in experiment [5] it was less than 10 nM; in experiment [7], 10 to 100 nM. The figures for the GI50 in experiment [2], in experiment [4] and in experiment [6] were 10 to 100 nM, less than 10 nM and 10 to 100 nM, respectively.

For the compound `CC1CCOc2c(cnn2CC2CC2)-c2nccc(n2)Nc2cc3c(cn2)c(N2CCC2)nn31` (stereo not shown) [(2)], the IC50 in experiment [1] (setting [8]) was 100 to 1000 nM; in experiment [3], less than 10 nM; in experiment [5], less than 10 nM; in experiment [7], 10 to 100 nM. Further, the GI50 in experiment [2], in experiment [4] and in experiment [6] was 10 to 100 nM each time.

As to `C[C@H]1CCOc2c(cnn2C)-c2nccc(n2)Nc2cc3c(cn2)c(-c2cccc(CN(C)C)n2)nn31` [(182)], the IC50 in experiment [1] (setting [8]) was 100 to 1000 nM; in experiment [3] it was less than 10 nM; in experiment [5] it was less than 10 nM; in experiment [7], 10 to 100 nM. For the same compound, the GI50 in experiment [2] was 10 to 100 nM; in experiment [4], less than 10 nM; in experiment [6] it was 10 to 100 nM.

Turning to `C[C@H]1CCOc2c(cnn2C)-c2nccc(n2)Nc2cc3c(cn2)c(-c2cnn(CCCN4CCOCC4)c2)nn31` [(115)], the IC50 in experiment [1] (setting [8]) was 100 to 1000 nM; in experiment [3], less than 10 nM; in experiment [5] it was less than 10 nM; in experiment [7], 10 to 100 nM. The GI50 in experiment [2], in experiment [4] and in experiment [6] was 10 to 100 nM in each case.

Consider `C[C@H]1CCOc2c(cnn2C)-c2nccc(n2)Nc2cc3c(cn2)c(-c2cc(CN4CCOCC4)n(C)n2)nn31` [(105)], for which the IC50 in experiment [1] (setting [8]) is not below 1000 nM; in experiment [3], less than 10 nM; in experiment [5], less than 10 nM; in experiment [7], less than 10 nM. Further, the GI50 in experiment [2] is less than 10 nM; in experiment [4], less than 10 nM; in experiment [6] it was 10 to 100 nM.

Regarding `C[C@H]1CCOc2c(cnn2C)-c2nccc(n2)Nc2cc3c(cn2)c(-c2cccc(CN(C)C)c2)nn31` [(165)], the IC50 is 100 to 1000 nM in experiment [1] (setting [8]), less than 10 nM in experiment [3], less than 10 nM in experiment [5] and less than 10 nM in experiment [7]. Moreover, the GI50 in experiment [2], in experiment [4] and in experiment [6] was less than 10 nM each time.

For the compound `CC1CCCOc2c(cnn2C)-c2nccc(n2)Nc2cc3c(cn2)c(-c2ccnn2C)nn31` (stereo not shown) [(75)], the IC50 in experiment [1] (setting [8]) is 100 to 1000 nM; in experiment [3] it was less than 10 nM; in experiment [5], less than 10 nM; in experiment [7], 10 to 100 nM. Besides, the GI50 in experiment [2], in experiment [4] and in experiment [6] was 10 to 100 nM in each case.
